# Data as given in patent publication US12427139B2, “Applications for nicardipine in preparing anti-lung cancer products” (SHANGHAI JIAO TONG UNIVERSITY, priority 2015, dated 2025).
# Legend:
# Type in all cases: cell-based
# [1] = system: NCI-H524 non-small cell lung cancer cells; experiment: CellTiter-Glo luminescent cell viability assay, NCI-H524 drug screening plate; details: for IC50: NCI-H524 cells, CellTiter-Glo
# Description: (§1) In example 1, CELLTITER-GLO was used to test nicardipine against non-small cell lung cancer. n) NCI-H524 cells and NCI-H446 cells were handled as described above, and NCI-H524 96-well cell culture plates and NCI-H446 96-well cell culture plates were obtained, respectively. The complete medium for NCI-H524 cells was RPMI-1640 (a live product), Cat #A1049101, with a cells/well density of 16000. a) DMSO was used to dilute the analyte nicardipine to 20 mM for use. b) 79 μL of the 20 mM analyte prepared in step a) was added to the first well in the first row of the dilution plate, and then 54 μL of DMSO solution was added to the second through ninth wells of the first row. 25 μL of solution was aspirated from the first to the second well, and after mixing well 25 μL of solution was aspirated from the second to the third well, and this was repeated until the 9th well in order to ensure that 3.16 dilution of the medication would be carried out one-by-one. b) 95 μl of cell-specific complete medium was added to the working plate, each medication to 9 wells. […] Testing • a) Before testing, the NCI-H524 96-well drug screening plate and the NCI-H446 96-well drug screening plate described in 3 above were stabilized to room temperature for 20-30 minutes. • b) An inverted microscope was used to observe the conditions of each group of cells in the culture plate and their death patterns, and any abnormal conditions were noted and retested. • c) 100 μl of CellTiter-Glo reagent (prepared as described in 1 above) was added to all drug screening plates and mixed evenly. • d) It was thoroughly oscillated in a 96-well microplate oscillator for 2 minutes to allow the cells to undergo full lysis. • e) It was stored away from light at room temperature for 15 minutes before carrying out luminescent signal detection to ensure signal stability. • f) An EnSpire multi-function plate reader was used at 570 nm to read the luminescent signals. • g) Data was processed and analyzed.
# [2] = system: NCI-H446 small-cell lung cancer cells; experiment: CellTiter-Glo luminescent cell viability assay, NCI-H446 drug screening plate; details: for IC50: NCI-H446 cells, CellTiter-Glo
# Description: as §1, with “for NCI-H446” for “for NCI-H524”, “of 8000.” for “of 16000.”
# [3] = system: NCI-H810 human lung cancer cells; experiment: CellTiter-Glo luminescent cell viability assay, NCI-H810 cells (same method)
# Description: (§2) In the examples below, the product sources for the NCI-H524 non-small cell lung cancer cells, the NCI-H446 small-cell lung cancer cells, the SNU-449 human hepatoma cells, and the NCI-H810 human lung cancer cells, are as follows: c) The NCI-H524 96 well cell plates and the NCI-H446 96-well cell plates prepared in step 1 were removed from the incubator, and 10 μl of the cell culture media (10× final concentration) with varying drug concentrations as described in b) above was added to the NCI-H524 96-well cell culture and the NCI-H446 96-well cell culture plate row-by-row as shown in FIG. 1. It was placed into a CO2 incubator at 37° C. for 72 hours, obtaining the NCI-H524 96-well drug screening plate and the NCI-H446 96-well drug screening plate. • a) The CellTiter-Glo reagent buffer was thawed before using and stabilized to room temperature for use. • b) The CellTiter-Glo reagent frozen substrate was thawed before using and stabilized to room temperature for use. • c) 100 ml of stabilized CellTiter-Glo buffer was added to the container with CellTiter-Glo reagent frozen substrate to adequately resuspend it to form an enzyme/substrate mixture, also referred to as the CellTiter-Glo assay reagent. • d) It was gently mixed and vortexed and inverted multiple times to achieve a uniform solution. In general, the CellTiter-Glo substrate reagent will adequately dissolve within 1 minute. […]
# [4] = system: SNU-449 human hepatoma cells; experiment: CellTiter-Glo luminescent cell viability assay, SNU-449 cells (same method)
# Description: as §2
structure (smiles),measurement,setting,value
COC(=O)C1=C(C)NC(C)=C(C(=O)OCCN(C)Cc2ccccc2)C1c1cccc([N+](=O)[O-])c1 (centres unmarked) [nicardipine],IC50,"[1]; Homo sapiens, NCI-H524, 72 h",18.6 µM
same,EC50,"[1]; Homo sapiens, FIG. 2, nicardipine sensitivity to non-small cell lung cancer (NCI-H524), 72 hours",20.3 µM
same,IC50,[1]; 72 hours,18.6 µM
same,IC50,"[2]; Homo sapiens, NCI-H446, 72 h",18.4 µM
same,EC50,"[2]; Homo sapiens, FIG. 3, nicardipine sensitivity to small cell lung cancer (NCI-H446), 72 hours",18 µM
same,IC50,[2]; 72 hours,18.4 µM
same,IC50,[3],≥ 100 µM
same,IC50,[4],≥ 100 µM
